The subject of one data set is SRSF5. The experiment in a line: SR protein abundance by Western blot in HeLa rtTA HIVΔmls cells: SRSF5. Particulars: 2.5 μM, 24 h, relative to DMSO.
The next data set deals with SRSF4. In words: SR protein abundance and phosphorylation by Western blot in HeLa rtTA HIVΔmls cells: SRSF4.
A further data set concerns adenovirus genome. In words: Adenovirus viral DNA replication by qPCR in A549 cells. In kind it is cell-based. Particulars: 2.5 μM. Here is the method: For adenovirus DNA analysis, cells were seeded on 6 cm plates at a density of 1×10^6 cells per plate. The next day, cells were infected with HAdV-C5 (MOI 100) for 1 h, inoculum was removed and replaced with medium containing DMSO or GPS491 (2.5 μM). At the indicated times post-infection, cells were collected and washed in 1×PBS. Cells were lysed using 200 uL lysis buffer (10 mM Tris-HCl [pH 8.0], 75 mM NaCl, 0.1% SDS, 0.5% NP-40, 0.5% Tween 20, 0.5 mg/ml proteinase K) at 56° C. for 4 to 5 h and the mixture was boiled for 15 min. Samples were centrifuged at 13000×g and supernatant was collected. All samples from a given experiment were processed at the same time. Adenovirus DNA levels were determined by qPCR as previously detailed in Grosso F. et al. (2017). J Virol. 91(3):e01623-16.
To assess whether the altered pattern of E1A expression could be attributed to changes in viral RNA accumulation or splicing, RT-PCR analysis was performed. The E1A transcript is the first viral RNA generated upon adenovirus infection and can be processed into three different mRNAs by alternative splicing; designated 13S, 12S, and 9S as shown in FIG. 20(A). The abundance of the different E1A RNA isoforms fluctuates over the course of adenovirus infection; 13S and 12S predominating at early times p.i., while 9S is the major E1A RNA at later times. […]

For a further data set, the system named is 229E coronavirus. The experiment in a line: microbe, parasite or virus in culture. In kind it is cell-based, coronavirus 229E. Particulars: Huh7 cells.
Data set [1] has as its system E1A RNA isoforms (13S, 12S, 9S). In words: E1A transcript alternative splicing by RT-PCR in A549 cells. In kind it is cell-based, adenovirus. To be noted: by 16 h p.i. Here is the method: A549 cells were infected with adenovirus-C5 at a MOI of 100 for 1 h after which virus was removed and replaced with media containing DMSO or GPS491 (2.5 μM or 5 μM). Total RNA was extracted at 8 h, 16 h, or 24 h after virus infection. After cDNA generation, RT-PCR was performed using E1A specific primers.
To assess whether the altered pattern of E1A expression could be attributed to changes in viral RNA accumulation or splicing, RT-PCR analysis was performed. The E1A transcript is the first viral RNA generated upon adenovirus infection and can be processed into three different mRNAs by alternative splicing; designated 13S, 12S, and 9S as shown in FIG. 20(A). The abundance of the different E1A RNA isoforms fluctuates over the course of adenovirus infection; 13S and 12S predominating at early times p.i., while 9S is the major E1A RNA at later times. As shown in FIG. 20(B), the treatment of the cells with the GPS491 (12c) compound at both concentrations induced a shift in the E1A transcript splicing which favoured the production of the 13S RNA transcript as compared to the DMSO control which favoured the production of the 9S RNA transcript. […] As early as 8 h p.i., while 13S and 12S RNAs were the predominate isoforms in both DMSO and GPS491 treated samples, GPS491 addition increased the relative abundance of 13S RNA. […]

The next data set deals with HIV-1Bal strain. In words: PBMC infection assay, p24Gag ELISA day 11, HIV-1BaL. To be noted: read-out: EC50 against HIV-1Bal in PBMC; three separate donors, one value per donor; p24 day 11; listed as GPS491.
The next data set concerns SRSF9. The experiment in a line: SR protein abundance by Western blot in HeLa rtTA HIVΔmls cells: SRSF9. To be noted: 2.5 μM, 24 h, relative to DMSO.
The next data set has as its system Huh7 cell line. Particulars: 24 hr, Alamar Blue.
For a further data set, the system named is OC43 coronavirus. Type of data set: cell-based. Particulars: Huh7 cells.
The subject of data set [2] is Bcl-x transcript splicing. In words: SR-protein induced Bcl-x splicing, X2.13 minigene in 293 cells, RT-PCR. In kind it is cell-based. To be noted: 10 μM.
Data set [3] deals with HIV-1 97USSN54 (subtype A, R5-tropic). In words: Anti-HIV viral spread assay in CEM-GXR cells, wild-type subtype A. Particulars: Human immunodeficiency virus 1, nonlinear regression, read-out: EC50 (WT Subtype A). In kind it is cell-based. An excerpt: To validate these EC50 values, the anti-HIV drug, emtricitabine (FTC) was included in the anti-HIV assay as a positive control.

The subject of another data set is SRSF6. The experiment in a line: SR protein abundance by Western blot in HeLa rtTA HIVΔmls cells: SRSF6. Particulars: 2.5 μM, 24 h, relative to DMSO.
The subject of another data set is HIV-1 IIIB strain. In words: PBMC infection assay, p24Gag ELISA day 11, HIV-1 IIIB. Particulars: p24 day 11.
Data set [4] has as its system (N)NRTI-resistant isolate (E00443). In words: Anti-HIV assay against (N)NRTI-resistant isolate E00443. Particulars: Human immunodeficiency virus 1, read-out: EC50 against isolate E00443.
Method: (§1) The anti-HIV activity of the compounds was measured by a human T-cell reporter assay based on CEM-GXR cells. These cells express GFP due to the activation of the tat-dependent promoter upon HIV-1 infection, and the level of infection was monitored using Flow cytometric analysis (Guavasoft 2.2™ software, Guava HT8, Millipore™). Antiviral activity was evaluated in an assay that measures the inhibition of HIV-1 spread in a co-culture of CEM-GXR cells containing one percent of HIV-1 infected (GFP positive) cells.
Data set [5] relates to Maraviroc-resistant variant of HIV-1BaL. The experiment in a line: Anti-HIV assay against Maraviroc-resistant R5 strain. To be noted: Human immunodeficiency virus 1, read-out: EC50 against Maraviroc-resistant HIV-1 strain.
Method: as §1
(§2) This Maraviroc-resistant variant derived from a R5 strain of HIV-1BaL contains five mutations within the envelope V3 loop: A19T, L20F, T22A, E25D, and I26V.
The test system of data set [6] is clinical isolate (11845 INI). The experiment in a line: Anti-HIV assay against INI-resistant clinical isolate 11845. Particulars: Human immunodeficiency virus 1, read-out: EC50 against 11845 clinical isolate.
Method: as §1, §2

Consider one compound from patent US12622896B2, “Antiviral compounds, compositions and methods of use” (THE UNIVERSITY OF BRITISH COLUMBIA, priority 2019, dated 2026).

pEC50: −log10 of the molar value. “And” between values parts separate entries of the source, which are not always exact repeats. Equal values may be shown once. Read-outs that look alike come from different tables or passages of the source. A value given as a limit tells only on which side of the number the result lay.

Method for SRSF5: (§3) After 24 h of treatment, cells were harvested in 1×PBS, 2 mM EDTA and cell pellet resuspended in RIPA buffer. […] To assess effects on SR protein expression, cells were harvested in RIPA buffer containing phosphatase inhibitors and lysates fractionated on StainFree™ SDS-PAGE gels. Western blots were probed with one of the following antibodies: mouse α-SRSF1 (Life Technologies™, Cat: 32-4500), rabbit α-SRSF2 (BD Pharmingen™, Cat: 556363), mouse α-SRSF3 (Life Technologies™, Cat: 33-4200), rabbit α-SRSF4 (Novus Biologicals™, Cat: 2-04144), rabbit α-SRSF5 (MBL, RN082PW), rabbit α-SRSF6 (Novus Biologicals™, Cat: NBP2-04142), rabbit α-SRSF7 (Abcam™, Cat: ab137247), and rabbit α-SRSF9 (MBL, Cat: RN081PW), rabbit α-Tra2p (Abcam™, Cat: ab31353), and rabbit α-GAPDH (Sigma™, Cat: G9545). The following secondary antibodies were used: α-mouse, horseradish peroxidase (HRP)-conjugated IgG (Jackson Immunoresearch Laboratories™, Cat: 715-036-150) or α-rabbit, HRP-conjugated IgG (Jackson Immunoresearch Laboratories™, Cat: 711-036-152). […] Quantification of the relative intensity of the detected bands was done using ImageLab software and normalized to corresponding bands of the loading control (GAPDH, tubulin, or total protein).
(§4) Briefly, cell lysates from HeLa rtTA HIVΔmls cells treated for 24 h with either DMSO or GPS491 were fractionated on SDS-PAGE gels and individual factors detected by Western blot.
Method for SRSF6: as §3, §4
Method for SRSF9: as §3, §4

`O=C(Nc1nc2ccc(C(F)(F)F)cc2s1)c1cnc(C(F)(F)F)s1` [12c, 2-(trifluoromethyl)-N-(6-(trifluoromethyl)benzo[d]thiazol-2-yl)thiazole-5-carboxamide]: the “increase of SRSF5 level” value in the data set with SRSF5 is 1.5 fold. In the data set on SRSF4 (2.5 μM, 24 h, relative to DMSO), the “reduction of SRSF4 abundance” value amounted to 20%. Moreover, in the data set on SRSF4 (GPS491 vs DMSO treated samples), the “SRSF4 phosphorylation (gel mobility, phosphatase treatment)” value was “increased phosphorylation”. Also, in the data set on adenovirus genome, the “viral DNA accumulation” value was “levels comparable to that observed immediately after virus addition”. For the same compound, the “effect on replication of 229E” value with 229E coronavirus was “marked inhibition”. Also, the pEC50 was approximately 6.60 in the data set on 229E coronavirus (Human coronavirus 229E, Huh-7, dose response); 6.32 and 6.96 and 6.68 with HIV-1Bal strain; 6.75 in data set [3]; 6.18 with HIV-1 IIIB strain (Human immunodeficiency virus 1, IIIB, PBMC, 264 h, read-out: EC50 against HIV-1 IIIB in PBMC, three separate donors, one value per donor); 6.02 and 6.04 in the data set on HIV-1 IIIB strain (read-out: EC50 against HIV-1 IIIB in PBMC, three separate donors, one value per donor, listed as GPS491); 6.63 in data set [4]. Moreover, the pEC50 in data set [5] is 6.67; in [6], 6.69. For the same compound, in data set [1], the “13S RNA share of all E1A RNAs” value is more than 90%. In the data set on SRSF9, the “increase of SRSF9 level” value stood at 1.5 fold. In the data set with Huh7 cell line, the “toxicity against the Huh7 cell line” value was “minimal toxicity”. The “effect on replication of OC43” value with OC43 coronavirus is “marked inhibition”. For the same compound, the “generation of Bcl-xL splicing variant with SRSF1 or SRSF9” value in data set [2] is given as “did not have any impact”. In addition, the “Bcl-xS splice variant with SRSF10” value in [2] (24 hour) is reported as “reduction”. The “reduction of SRSF6 abundance” value in the data set with SRSF6 is 50%.
